Laboratory results taken from US12473290B2, “Imidazopyridazine compounds useful as modulators of IL-12, IL-23 and/or IFN alpha responses” (BRISTOL-MYERS SQUIBB COMPANY, priority 2019, dated 2025).

Assays:
[1] = Kit225 T Cell Assay, IL-23-stimulated STAT-dependent luciferase reporter; type: cell-based; conditions: Kit225 T cells, 20 ng/mL human recombinant IL-23, 5-6 hours, luciferase expression
Experimental: (§1) Kit225 T cells with a stably-integrated STAT-dependent luciferase reporter were plated in RPMI (Gibco) containing 10% heat-inactivated FBS (Gibco) and 100 U/mL PenStrep (Gibco). The cells were then stimulated with either 20 ng/mL human recombinant IL-23 or 200 U/mL human recombinant IFNα (PBL InterferonSource) for 5-6 hours. Luciferase expression was measured using the STEADY-GLO® Luciferase Assay System (Promega) according to the manufacturer's instructions. Inhibition data were calculated by comparison to no inhibitor control wells for 0% inhibition and non-stimulated control wells for 100% inhibition. Dose response curves were generated to determine the concentration required to inhibit 50% of cellular response (IC50) as derived by non-linear regression analysis.

[2] = tested on: IFNα Kit225 Reporter (Kit225 T cells with a stably-integrated STAT-dependent luciferase reporter, stimulated with IFNα); experiment: Kit225 T Cell Assay, IFNα-stimulated STAT-dependent luciferase reporter; type: cell-based; conditions: 200 U/mL human recombinant IFNα, 5-6 hours, luciferase expression
Experimental: as §1

| IC50 [1] | IC50 [2] | Structure (SMILES) |
| --- | --- | --- |
| 150 nM | 270 nM | N#Cc1cnc2c(Nc3cccc(NC(=O)c4ccccc4)n3)cc(N[C@@H]3CCCC[C@H]3O)nn12 [Example 10, N-{6-[(3-cyano-6-{[(1R,2R)-2-hydroxycyclohexyl]amino}imidazo[1,2-b]pyridazin-8-yl)amino]pyridin-2-yl}benzamide] |
| 240 nM | 140 nM | N#Cc1cnc2c(Nc3ccc(C(=O)N[C@@H]4CCC[C@@H]4O)cn3)cc(NCC3CC3)nn12 [Example 53, 6-({3-cyano-6-[(cyclopropylmethyl)amino]imidazo[1,2-b]pyridazin-8-yl}amino)-N-[(1R,2S)-2-hydroxycyclopentyl]pyridine-3-carboxamide] |
| 590 nM | 810 nM | N#Cc1cnc2c(Nc3ccc4c(C(F)(F)F)cc(C(F)(F)F)nc4n3)cc(NC34CC5CC(O)(CC(O)(C5)C3)C4)nn12 [Example 19, 8-{[5,7-bis(trifluoromethyl)-1,8-naphthyridin-2-yl]amino}-6-[(3,5-dihydroxyadamantan-1-yl)amino]imidazo[1,2-b]pyridazine-3-carbonitrile] |
| 240 nM | 860 nM | CN(C(=O)c1ccc(Nc2cc(NC3CCOCC3)nn3c(C#N)cnc23)nc1OCC(F)F)C1COC1 [Example 44, 6-({3-cyano-6-[(oxan-4-yl)amino]imidazo[1,2-b]pyridazin-8-yl}amino)-2-(2,2-difluoroethoxy)-N-methyl-N-(oxetan-3-yl)pyridine-3-carboxamide] |
| 470 nM | 340 nM | N#Cc1cnc2c(Nc3ccc(C(=O)N4CCCC4)cn3)cc(NC3CCOCC3)nn12 [Example 23, 6-[(oxan-4-yl)amino]-8-{[5-(pyrrolidine-1-carbonyl)pyridin-2-yl]amino}imidazo[1,2-b]pyridazine-3-carbonitrile] |
| 110 nM | 320 nM | C[C@@H](NC(=O)c1cccc(Nc2cc(NC34CC5CC(CC(O)(C5)C3)C4)nn3c(C#N)cnc23)n1)C(F)(F)F [Example 41, 6-({3-cyano-6-[(3-hydroxyadamantan-1-yl)amino]imidazo[1,2-b]pyridazin-8-yl}amino)-N-[(2R)-1,1,1-trifluoropropan-2-yl]pyridine-2-carboxamide] |
| 530 nM | 620 nM | N#Cc1cnc2c(Nc3cccc(N4CCN(CCO)CC4)n3)cc(N[C@@H]3CCCC[C@H]3O)nn12 [Example 55, 6-{[(1R,2R)-2-hydroxycyclohexyl]amino}-8-({6-[4-(2-hydroxyethyl)piperazin-1-yl]pyridin-2-yl}amino)imidazo[1,2-b]pyridazine-3-carbonitrile] |
| 140 nM | 380 nM | CCNc1nc(Nc2cc(N[C@H]3CCCC[C@@H]3O)nn3c(C#N)cnc23)ccc1C(=O)N1CCCC1 [Example 29, 8-{[6-(ethylamino)-5-(pyrrolidine-1-carbonyl)pyridin-2-yl]amino}-6-{[(1S,2S)-2-hydroxycyclohexyl]amino}imidazo[1,2-b]pyridazine-3-carbonitrile] |
| 1100 nM | 760 nM | CC(=O)NCc1ccc(-c2cccc(Nc3cc(NC4CCOCC4)nn4c(C#N)cnc34)n2)cc1 [Example 50, N-({4-[6-({3-cyano-6-[(oxan-4-yl)amino]imidazo[1,2-b]pyridazin-8-yl}amino)pyridin-2-yl]phenyl}methyl)acetamide] |
| 440 nM | 150 nM | N#Cc1cnc2c(Nc3cccc(C(F)(F)F)n3)cc(NC34CC5CC(O)(CC(O)(C5)C3)C4)nn12 [Example 20, 6-[(3,5-dihydroxyadamantan-1-yl)amino]-8-{[6-(trifluoromethyl)pyridin-2-yl]amino}imidazo[1,2-b]pyridazine-3-carbonitrile] |
| 670 nM | 760 nM | COCCNC(=O)c1ccc(Nc2cc(N[C@@H]3CCCC[C@H]3O)nn3c(C#N)cnc23)nc1N(C)C [Example 32, 6-[(3-cyano-6-{[(1R,2R)-2-hydroxycyclohexyl]amino}imidazo[1,2-b]pyridazin-8-yl)amino]-2-(dimethylamino)-N-(2-methoxyethyl)pyridine-3-carboxamide] |
| 490 nM | 280 nM | CC1(C(=O)Nc2cccc(Nc3cc(N[C@@H]4CCCC[C@H]4O)nn4c(C#N)cnc34)n2)CC1 [Example 8, N-{6-[(3-cyano-6-{[(1R,2R)-2-hydroxycyclohexyl]amino}imidazo[1,2-b]pyridazin-8-yl)amino]pyridin-2-yl}-1-methylcyclopropane-1-carboxamide] |
| 660 nM | 490 nM | N#Cc1cnc2c(Nc3ccc(C(=O)N4CCCC4)c(N4CCCC4)n3)cc(N[C@H]3CCCC[C@@H]3O)nn12 [Example 14, 6-{[(1S,2S)-2-hydroxycyclohexyl]amino}-8-{[6-(pyrrolidin-1-yl)-5-(pyrrolidine-1-carbonyl)pyridin-2-yl]amino}imidazo[1,2-b]pyridazine-3-carbonitrile] |
| 240 nM | 830 nM | CC(C)Oc1nc(Nc2cc(N[C@@H]3CCCC[C@H]3O)nn3c(C#N)cnc23)ccc1C(=O)N1CCCC1 [Example 1, 6-{[(1R,2R)-2-hydroxycyclohexyl]amino}-8-{[6-(propan-2-yloxy)-5-(pyrrolidine-1-carbonyl)pyridin-2-yl]amino}imidazo[1,2-b]pyridazine-3-carbonitrile] |
| 630 nM | 880 nM | CC(C)N1CCN(c2cccc(Nc3cc(N[C@@H]4CCCC[C@H]4O)nn4c(C#N)cnc34)n2)CC1 [Example 54, 6-{[(1R,2R)-2-hydroxycyclohexyl]amino}-8-({6-[4-(propan-2-yl)piperazin-1-yl]pyridin-2-yl}amino)imidazo[1,2-b]pyridazine-3-carbonitrile] |
| 940 nM | 450 nM | N#Cc1cnc2c(Nc3cccc(-n4cccn4)n3)cc(N[C@@H]3CCCC[C@H]3O)nn12 [Example 61, 6-{[(1R,2R)-2-hydroxycyclohexyl]amino}-8-{[6-(1H-pyrazol-1-yl)pyridin-2-yl]amino}imidazo[1,2-b]pyridazine-3-carbonitrile] |
| 560 nM | 360 nM | CC1(C)CCCN1C(=O)c1ccc(Nc2cc(N[C@H]3CCCC[C@@H]3O)nn3c(C#N)cnc23)nc1 [Example 11, 8-{[5-(2,2-dimethylpyrrolidine-1-carbonyl)pyridin-2-yl]amino}-6-{[(1S,2S)-2-hydroxycyclohexyl]amino}imidazo[1,2-b]pyridazine-3-carbonitrile] |
| 110 nM | 550 nM | CS(=O)(=O)N1CCN(c2cccc(Nc3cc(N[C@@H]4CCCC[C@H]4O)nn4c(C#N)cnc34)n2)CC1 [Example 63, 6-{[(1R,2R)-2-hydroxycyclohexyl]amino}-8-{[6-(4-methanesulfonylpiperazin-1-yl)pyridin-2-yl]amino}imidazo[1,2-b]pyridazine-3-carbonitrile] |
| 450 nM | 640 nM | N#Cc1cnc2c(Nc3ccc(C(=O)N4CCCC4)c(OCC(F)F)n3)cc(N[C@H]3CCCC[C@@H]3O)nn12 [Example 13, 8-{[6-(2,2-difluoroethoxy)-5-(pyrrolidine-1-carbonyl)pyridin-2-yl]amino}-6-{[(1S,2S)-2-hydroxycyclohexyl]amino}imidazo[1,2-b]pyridazine-3-carbonitrile] |
| 890 nM | 760 nM | CS(=O)(=O)NCc1ccc(-c2cccc(Nc3cc(N[C@@H]4CCCC[C@H]4O)nn4c(C#N)cnc34)n2)cc1 [Example 38, N-[(4-{6-[(3-cyano-6-{[(1R,2R)-2-hydroxycyclohexyl]amino}imidazo[1,2-b]pyridazin-8-yl)amino]pyridin-2-yl}phenyl)methyl]methanesulfonamide] |
| 460 nM | 520 nM | N#Cc1cnc2c(Nc3ccc(C(=O)N4CCCC4)c(OCC(F)(F)F)n3)cc(N[C@@H]3CCCC[C@H]3O)nn12 [Example 4, 6-{[(1R,2R)-2-hydroxycyclohexyl]amino}-8-{[5-(pyrrolidine-1-carbonyl)-6-(2,2,2-trifluoroethoxy)pyridin-2-yl]amino}imidazo[1,2-b]pyridazine-3-carbonitrile] |
| 260 nM | 460 nM | CC(C)(C)CNc1cc(Nc2cccc(NC(=O)C3CC3)n2)c2ncc(C#N)n2n1 [Example 28, N-[6-({3-cyano-6-[(2,2-dimethylpropyl)amino]imidazo[1,2-b]pyridazin-8-yl}amino)pyridin-2-yl]cyclopropanecarboxamide] |
| 580 nM | 450 nM | CC(C)(C)N1CCN(c2cccc(Nc3cc(N[C@@H]4CCCC[C@H]4O)nn4c(C#N)cnc34)n2)C1=O [Example 6, 8-{[6-(3-tert-butyl-2-oxoimidazolidin-1-yl)pyridin-2-yl]amino}-6-{[(1R,2R)-2-hydroxycyclohexyl]amino}imidazo[1,2-b]pyridazine-3-carbonitrile] |

| Structure (SMILES) | IC50 [1] | IC50 [2] |
| --- | --- | --- |
| CN(C)c1nc(Nc2cc(N[C@@H]3CCCC[C@H]3O)nn3c(C#N)cnc23)ccc1C(=O)N1CCN(c2ccccc2F)CC1 [Example 30, 8-{[6-(dimethylamino)-5-[4-(2-fluorophenyl)piperazine-1-carbonyl]pyridin-2-yl]amino}-6-{[(1R,2R)-2-hydroxycyclohexyl]amino}imidazo[1,2-b]pyridazine-3-carbonitrile] | 390 nM | 730 nM |
| CC(C)(C)Oc1nc(Nc2cc(N[C@@H]3CCCC[C@H]3O)nn3c(C#N)cnc23)ccc1C(=O)N1CCCC1 [Example 12, 8-{[6-(tert-butoxy)-5-(pyrrolidine-1-carbonyl)pyridin-2-yl]amino}-6-{[(1R,2R)-2-hydroxycyclohexyl]amino}imidazo[1,2-b]pyridazine-3-carbonitrile] | 2730 nM | 380 nM |
